Columns and labels:
[1] = system: K. pneumoniae BL809453 (KPC); test: microbe, parasite or virus in culture; type: cell-based; details: Klebsiella pneumoniae, 20 h, combinations: avibactam fixed 4 mg L^−1, clavulanic acid 2 mg L^−1, median (n = 3)
Method in brief: (§1)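 Broth microdilution in cation-adjusted MHB II with twofold serial compound dilutions; final inoculum 5 × 10^5 CFU mL^−1, incubated 20 h at 37 ± 1 °C. MIC = lowest concentration preventing visible growth. β-Lactamase inhibitors were added at fixed levels (clavulanic acid 2 mg L^−1, avibactam 4 mg L^−1).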

[2] = system: A. pittii Tü21‐041 (clinical isolate); test: microbe, parasite or virus in culture; type: cell-based; details: Acinetobacter pittii; A. pittii Tü21‐041; median (n = 3); read-out: MIC
Method in brief: as §1

[3] = system: K. pneumoniae 0 6841/Nr.45 (Oxa48); test: microbe, parasite or virus in culture; type: cell-based; details: Klebsiella pneumoniae, 20 h; K. pneumoniae 06841/Nr.45 (Oxa48); combinations: avibactam fixed 4 mg L^−1, clavulanic acid 2 mg L^−1; median (n = 3)
Method in brief: as §1

[4] = system: E. coli Tü21‐031 (Oxa244, ESBL); test: microbe, parasite or virus in culture; type: cell-based; details: Escherichia coli, combinations: avibactam fixed 4 mg L^−1, median (n = 3)
Method in brief: as §1

[5] = system: K. pneumoniae ATCC 700 603 (SHV‐18); test: microbe, parasite or virus in culture; type: cell-based; details: Klebsiella pneumoniae, 20 h; K. pneumoniae ATCC 700603 (SHV‐18); combinations: avibactam fixed 4 mg L^−1, clavulanic acid 2 mg L^−1; median (n = 3)
Method in brief: as §1

[6] = system: VRE E. faecium UW 18 830 (vanA); test: Systemic infection VRE mouse model; type: in vivo, female Balb/c mice; details: VRE E. faecium UW18830 infected Balb/c mice, 30 mg kg^−1 day^−1 i.v., 48 h p.i., compared to CTZ or PBS
Excerpt: The animal infection studies were approved by the local government of Lower Franconia, Germany (approval number 55.2.2‐2532.2‐1283) and performed in strict accordance with the guidelines for animal care and experimentation of the German Animal Protection Law and the DIRECTIVE 2010/63/EU of the EU. The animals were housed in individually ventilated cages under standardized lighting conditions and had ad libitum access to food and water. To evaluate the in vivo activity during systemic infection, female Balb/c mice were infected with 5×10^7 CFU of VRE E. faecium UW 18 830 (vanA) by tail vein injection. Beginning at 1 h p.i., then repeatedly every 12 h, mice received intravenously either CTZ (30 mg kg body weight^−1 day^−1), CTZ‐R6 (30 mg kg body weight^−1 day^−1) or sterile PBS. The livers were recovered 48 h p.i. (12 h after the last treatment) and frozen at – 80 °C until further processing. For the determination of the bacterial burden, the livers were thawed, homogenized in PBS and plated in serial dilutions on brain heart infusion agar plates. CFU were counted after overnight incubation at 37 °C.

[7] = system: PBP5; test: Gel‐based PBP affinity assay (Bocillin FL competition); type: binding; details: PBPs from vancomycin‐resistant E. faecalis; compared with parent; at concentrations considerably higher than MICs
Method: (§2) B. subtilis DSM 10 and E. faecalis ATCC 51 299 (equal to DSM 12 956) membrane protein fractions were extracted according to the protocol of Dean et al. with minor modifications.^[ [34] ^] From a growing overnight bacterial culture, 3 L of LB (Luria‐Bertani) medium or TSB (tryptic soy broth) were inoculated with B. subtilis DSM 10 and E. faecalis ATCC 51 299, respectively, to obtain an OD600 = 0.3. The cultures were grown to an OD600 = 0.6–0.8 while shaking at 37 °C and cells were harvested by centrifugation at 4000 g for 30 min at 4 °C. The resulting pellet was washed twice with pre‐cooled PBS and resuspended in 30 mL of ice‐cooled PBS. The suspension was sonicated on ice (10 cycles of 30 s at 50% power for B. subtilis; 12 cycles of 30 s at 80% power for E. faecalis; 2 min intervals between cycles) using an Omni Ruptor 4000 ultrasonic homogenizer (Omni International, Kennesaw, GA, USA). Afterwards, the suspension was centrifuged at 7000 g for 10 min at 4 °C. The clear supernatant was transferred into a 50 mL polypropylene tube and centrifuged in a Beckman Coulter centrifuge equipped with a JA‐20 fixed‐angle rotor (Beckman Coulter, Krefeld, Germany) at 50 000 g for 1 h at 4 °C. The resulting pellet was washed with ice‐cold PBS and centrifuged a second time. The pellet was resuspended in 2 mL PBS and aliquots were stored at −80 °C. The protein content was determined using Bradford reagent (VWR International, Darmstadt, Germany) and Pierce BCA (bicinchoninic acid) protein assay kits (Thermo Fisher Scientific, Waltham, MA, USA) for membrane fractions of B. subtilis and E. faecalis, respectively.
(§3) Each dilution was combined with B. subtilis (30 µg) or E. faecalis (15 µg) extracted membrane fractions. As reference samples, membrane fractions incubated with only PBS were prepared. Reaction mixtures were incubated for 20 min at 37 °C while shaking at 400 rpm. Next, Bocillin FL penicillin (Thermo Fisher Scientific, Waltham, MA, USA) was added to obtain a final concentration of 20 µM in the mixture. Samples were incubated for 30 min at 37 °C while shaking at 400 rpm. To denature the samples, 4× Laemmli sample buffer (Bio‐Rad Laboratories, Feldkirchen, Germany) was added, and the samples incubated for 10 min at 70 °C. Afterwards, the samples were centrifuged for 5 min at 13 000 rpm. Samples were separated by SDS‐PAGE using a 10% Tris‐glycine gel for 100 min at 180 V. The bands were visualized using a Typhoon FLA 9500 imager (GE Healthcare, Chicago, IL, USA) with excitation at 473 nm. The gel images were analyzed using ImageJ software. Brightness and contrast were adjusted to improve the signal‐to‐noise ratio and the background signal was subtracted over the whole image. Next, integrated density values of the gel bands were measured and Bocillin FL penicillin labeling of each PBP in antibiotic‐treated samples were set in proportion to the reference sample. IC50 values were calculated with GraphPad Prism software (version 8.0.1) using inhibitor versus normalized response variable slope and least‐squares fit. […] The mean was calculated using the IC50 values of at least two independent assays for each antibiotic.

[8] = molecular target: T1, PBP2A (Bacillus subtilis, UniProt P54488); test: as above; type: binding; details: B. subtilis membrane fractions, competition with Bocillin FL penicillin; compared with parent β‐lactam
T1 construct: endogenous in cells; host or cells: B. subtilis DSM 10, extracted membrane protein fraction
T1 sequence (P54488 whole entry): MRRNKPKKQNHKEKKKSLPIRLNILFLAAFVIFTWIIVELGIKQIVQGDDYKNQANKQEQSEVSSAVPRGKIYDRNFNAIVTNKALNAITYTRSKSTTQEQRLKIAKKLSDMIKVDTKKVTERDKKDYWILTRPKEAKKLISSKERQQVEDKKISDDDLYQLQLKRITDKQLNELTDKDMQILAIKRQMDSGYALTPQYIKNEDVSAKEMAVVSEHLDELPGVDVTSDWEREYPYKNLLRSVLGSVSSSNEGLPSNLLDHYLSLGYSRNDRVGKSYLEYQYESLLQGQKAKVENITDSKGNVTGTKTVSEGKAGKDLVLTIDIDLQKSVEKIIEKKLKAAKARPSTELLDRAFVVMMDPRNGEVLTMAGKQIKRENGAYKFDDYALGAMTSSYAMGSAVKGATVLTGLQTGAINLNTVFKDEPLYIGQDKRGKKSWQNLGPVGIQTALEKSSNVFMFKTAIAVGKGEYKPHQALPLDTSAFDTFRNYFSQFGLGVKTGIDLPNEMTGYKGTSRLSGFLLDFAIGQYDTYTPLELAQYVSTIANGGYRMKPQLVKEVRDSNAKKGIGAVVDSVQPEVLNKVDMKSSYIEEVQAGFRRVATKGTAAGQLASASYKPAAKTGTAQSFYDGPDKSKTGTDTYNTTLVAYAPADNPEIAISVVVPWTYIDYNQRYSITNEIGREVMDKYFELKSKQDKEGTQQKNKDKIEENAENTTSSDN
Method: as §2, §3

SMILES	MIC [1] [mg/L]	MIC [2] [mg/L]	MIC [3] [mg/L]	MIC [4] [mg/L]	MIC [5] [mg/L]	bacterial burden in the liver (CFU) [6]	binding to PBP5 [7]	affinity to PBP2A [8]
CC(C)(O/N=C(\C(=O)N[C@@H]1C(=O)N2C(C(=O)[O-])=C(C[n+]3ccccc3)CS[C@H]12)c1csc(N)n1)C(=O)O [CTZ, ceftazidime, reference compound]	> 64	4	> 64	32	64			
CC(C)(O/N=C(\C(=O)N[C@@H]1C(=O)N2C(C(=O)[O-])=C(C[n+]3ccccc3)CS[C@H]12)c1csc(N)n1)C(=O)NCCCCCCN1C(=O)CC(SC[C@H](NC(=O)[C@H](CCCNC(=N)N)NC(=O)[C@H](CCCNC(=N)N)NC(=O)[C@H](CCCNC(=N)N)NC(=O)[C@H](CCCNC(=N)N)NC(=O)[C@H](CCCNC(=N)N)NC(=O)[C@@H](N)CCCNC(=N)N)C(N)=O)C1=O (some centres unmarked) [CTZ-R6]						reduced the bacterial burden in the liver	slightly improved binding	significantly increased

Reference: publication PMC11672299, “Conjugation of Polycationic Peptides Extends the Efficacy Spectrum of β‐Lactam Antibiotics” (Advanced Science, 2024)
